Experimental data as given in US20060153932A1, “Method of treating hyperphosphataemia using lanthanum hydroxycarbonate” (Shire Pharmaceuticals, Inc., priority 2004, published 2006).

Legend:
[1] = 4-week oral toxicity study in rats; details: 103 or 1030 mg lanthanum/kg/day for 4 weeks
Protocol: A study was conducted to assess the toxicity of lanthanum hydroxycarbonate. Rats were dosed orally with lanthanum hydroxycarbonate (103 or 1030 mg lanthanum/kg/day), lanthanum carbonate tetrahydrate (103 or 1030 mg lanthanum/kg/day) or vehicle for 4 weeks.

[2] = In vitro phosphorus binding of lanthanum compounds
Protocol: In order to evaluate the efficacy of lanthanum hydroxycarbonate as a phosphate binder, the in vitro phosphorus binding of lanthanum hydroxycarbonate and lanthanum carbonate tetrahydrate were measured using the methodology described below:
The equivalent of 1 g elemental lanthanum as either lanthanum hydroxycarbonate or as lanthanum carbonate tetrahydrate was added to 500 mL of 0.1N HCl at 37° C. and adjusted to pH 1 with HCl which contained 300 mg of phosphorus. The preparation was stirred and sampled at regular intervals. This sample was filtered and the filtrate measured for phosphorus content using a Sigma Diagnostics Kit for Inorganic Phosphorus determination. The loss of phosphorus from the filtrate represents the amount of phosphorus bound by lanthanum and precipitated then retained on the filter.

SMILES: O.O.O.O.O=C([O-])[O-].O=C([O-])[O-].O=C([O-])[O-].[La+3].[La+3] [lanthanum carbonate tetrahydrate, Lanthanum carbonate tetrahydrate]
- Plasma exposure to lanthanum [1]: similar

SMILES: O=C([O-])[O-].[La+3].[OH-] [lanthanum hydroxycarbonate]
- rates of in vitro phosphate binding as compared to lanthanum carbonate tetrahydrate ([2]; dosed at the same level of elemental lanthanum): improved rates of in vitro phosphate binding
- more effective at binding phosphate in vitro, compared to lanthanum carbonate tetrahydrate ([2]; pH 1, same level of elemental lanthanum): approximately 50%
